Among the test systems are MOLT-4; OVCAR-3; UO-31; LOX IMVI; K562; U-251; UACC-62; NCI-H23; OVCAR-5; IGROV-1; SNB-75; UACC-257; SNB-19; RPMI-8226; HCT-15; OVCAR-8; HOP-62; CCRF-CEM; SK-MEL-2; SK-MEL-28.
What all share (assay): NCI tumour cell line growth inhibition, 48 h

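Where inhibition never reached the appropriate level, the endpoint shown equals the highest concentration tested. Otherwise, values were interpolated linearly from a five-concentration, 48-hour dose response in 96-well plates. Here, GI50 denotes the concentration required for 50% inhibition of growth.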 Active and inactive are the calls of the source. Cut-off read from the data, not from the text of the source: active = GI50 up to about 1.1 µM and inactive = higher.

The results in this text go back to ChEMBL document CHEMBL1201862, “PubChem BioAssay data set” (2004).

As for `Cc1cccc(/C=C2\CCCc3ccccc3C2=O)c1`, the GI50 is 16.9 µM (inactive) in the experiment with MOLT-4; 26.3 µM (inactive) with OVCAR-3; 26.8 µM (inactive) in the experiment on UO-31; 19.3 µM (inactive) with LOX IMVI; 18 µM (inactive) in the experiment on K562; 18.6 µM (inactive) in the experiment with U-251. For the same molecule, the GI50 in the experiment with UACC-62 is 14 µM (inactive); in the experiment on NCI-H23 it was 25.4 µM (inactive); with OVCAR-5, 15 µM (inactive); with IGROV-1, 21.6 µM (inactive); with SNB-75, 42.2 µM (inactive); in the experiment on UACC-257 it was 21.6 µM (inactive). Also, the GI50 was 24.4 µM (inactive) with SNB-19; 8.2 µM (inactive) with RPMI-8226; 18.7 µM in the experiment with HCT-15; 19.1 µM (inactive) in the experiment with OVCAR-8; 28.8 µM (inactive) in the experiment on HOP-62; 13.7 µM (inactive) with CCRF-CEM. The GI50 is 16.7 µM (inactive) with SK-MEL-2 and 23.8 µM (inactive) in the experiment on SK-MEL-28.
For `CN(O)C(=O)CCCC(=O)NCC(C)(C)CNC(=O)CCCC(=O)N(C)O`, the GI50 in the experiment with MOLT-4, in the experiment with OVCAR-3, in the experiment with UO-31, with LOX IMVI, in the experiment on K562 and in the experiment with U-251 was > 100 µM (inactive) each time. Besides, the GI50 in the experiment on UACC-62, in the experiment with NCI-H23, in the experiment on OVCAR-5, with IGROV-1, in the experiment on SNB-75 and with UACC-257 was > 100 µM (inactive) in each case. In addition, the GI50 in the experiment on SNB-19 was > 100 µM (inactive); with RPMI-8226 it was > 100 µM (inactive); in the experiment on HCT-15 it was more than 100 µM; with OVCAR-8, > 100 µM (inactive); in the experiment on HOP-62, > 100 µM (inactive); in the experiment on CCRF-CEM, > 100 µM (inactive). Besides, the GI50 in the experiment on SK-MEL-2 is > 100 µM (inactive).
Consider `CC(C)(C)[Si](OC1CCOC1=O)(c1ccccc1)c1ccccc1` (centres undefined), for which the GI50 in the experiment with MOLT-4 is 17.5 µM (inactive); in the experiment with OVCAR-3 it was 13.1 µM (inactive); in the experiment with UO-31 it was 27.1 µM (inactive); in the experiment on LOX IMVI, 15.5 µM (inactive); in the experiment with U-251 it was 14.7 µM (inactive); in the experiment on UACC-62, 13.9 µM (inactive). Moreover, the GI50 was 19.4 µM (inactive) with NCI-H23; 26.7 µM (inactive) in the experiment with OVCAR-5; 15.7 µM (inactive) with IGROV-1; 23.6 µM (inactive) with SNB-75; 17.1 µM (inactive) in the experiment on UACC-257; 29.6 µM (inactive) in the experiment on SNB-19. Also, the GI50 was 29 µM (inactive) in the experiment with RPMI-8226; 18.5 µM in the experiment with HCT-15; 23.4 µM (inactive) in the experiment on OVCAR-8; 25.6 µM (inactive) in the experiment on CCRF-CEM; 16.6 µM (inactive) in the experiment on SK-MEL-2; 22.3 µM (inactive) in the experiment on SK-MEL-28.
In the case of `NC(=S)N/N=C1\CC(c2ccccc2)Nc2ccccc21` (centres undefined), the GI50 with MOLT-4 was 22.6 µM (inactive); with OVCAR-3 it was 40.3 µM (inactive); in the experiment with UO-31, 24.5 µM (inactive); with LOX IMVI, 34.2 µM (inactive); in the experiment on K562 it was 12.2 µM (inactive); in the experiment with U-251, 39.6 µM (inactive). Further, the GI50 was 34.3 µM (inactive) in the experiment with UACC-62; 30.2 µM (inactive) in the experiment with NCI-H23; 42.7 µM (inactive) in the experiment with IGROV-1; 16.6 µM (inactive) with SNB-75; 40.8 µM (inactive) with SNB-19; 27.1 µM (inactive) in the experiment on RPMI-8226. Besides, the GI50 in the experiment with HCT-15 was 28.6 µM; with OVCAR-8, 41.6 µM (inactive); in the experiment with CCRF-CEM, 29.6 µM (inactive); with SK-MEL-28 it was 40.1 µM (inactive).
As to `C=CCn1c(=O)ccn(COCCO)c1=O`, the GI50 in the experiment with MOLT-4, in the experiment on OVCAR-3, in the experiment with UO-31, in the experiment with LOX IMVI, with K562 and in the experiment on U-251 was > 100 µM (inactive) in each case. Besides, the GI50 was > 100 µM (inactive) with NCI-H23; > 100 µM (inactive) with OVCAR-5; > 100 µM (inactive) in the experiment with IGROV-1; > 100 µM (inactive) with SNB-75; > 100 µM (inactive) in the experiment with UACC-257; 25.8 µM (inactive) in the experiment on SNB-19. Moreover, the GI50 with RPMI-8226, with OVCAR-8, in the experiment on HOP-62, with CCRF-CEM, in the experiment on SK-MEL-2 and in the experiment on SK-MEL-28 was > 100 µM (inactive) throughout.
In the case of `COc1c(Cl)cc(Cl)cc1S(=O)O`, the GI50 in the experiment with MOLT-4, in the experiment with OVCAR-3, with UO-31, in the experiment with LOX IMVI, in the experiment with K562 and in the experiment with U-251 was > 100 µM (inactive) each time. Further, the GI50 in the experiment on UACC-62, in the experiment with NCI-H23, with OVCAR-5, with SNB-75, with UACC-257 and in the experiment with SNB-19 was > 100 µM (inactive) in each case. Further, the GI50 in the experiment with HOP-62, in the experiment with CCRF-CEM, with SK-MEL-2 and with SK-MEL-28 was > 100 µM (inactive) each time.
For the molecule `CON(C)C(=O)C(Cc1ccccc1)NC(=O)OCc1ccccc1` (centres undefined), the GI50 is > 100 µM (inactive) in the experiment on MOLT-4; > 100 µM (inactive) in the experiment with OVCAR-3; 71.4 µM (inactive) in the experiment on UO-31; 77.1 µM (inactive) in the experiment on K562; > 100 µM (inactive) in the experiment with U-251; > 100 µM (inactive) with UACC-62. The GI50 with NCI-H23 is > 100 µM (inactive); with OVCAR-5, > 100 µM (inactive); with IGROV-1 it was > 100 µM (inactive); in the experiment with SNB-75 it was 33.3 µM (inactive); in the experiment on UACC-257 it was 86.1 µM (inactive); with SNB-19, > 100 µM (inactive). In addition, the GI50 was > 100 µM (inactive) in the experiment with RPMI-8226; more than 100 µM in the experiment on HCT-15; > 100 µM (inactive) in the experiment on OVCAR-8; > 100 µM (inactive) in the experiment on HOP-62; > 100 µM (inactive) with CCRF-CEM; > 100 µM (inactive) with SK-MEL-2. For the same molecule, the GI50 in the experiment with SK-MEL-28 was > 100 µM (inactive).
As to `O=[N+]([O-])C(/C=C(\Cl)[N+](=O)[O-])=C1Nc2ccccc2N1`, the GI50 is 37.1 µM (inactive) with MOLT-4; 90.2 µM (inactive) in the experiment with OVCAR-3; 42.6 µM (inactive) in the experiment with UO-31; 34.8 µM (inactive) with LOX IMVI; 79.6 µM (inactive) in the experiment with K562; 43.3 µM (inactive) with U-251. Also, the GI50 with UACC-62 was 33.4 µM (inactive); in the experiment on NCI-H23 it was > 100 µM (inactive); in the experiment on IGROV-1, 64.7 µM (inactive); with SNB-75 it was 17.3 µM (inactive); in the experiment on UACC-257, 33.3 µM (inactive); with SNB-19, 75.5 µM (inactive). The GI50 with RPMI-8226 is 44.3 µM (inactive); in the experiment with HCT-15 it was 59.4 µM; with OVCAR-8 it was 56.6 µM (inactive); with HOP-62, > 100 µM (inactive); in the experiment with CCRF-CEM, 34.8 µM (inactive); with SK-MEL-28, 42.3 µM (inactive).
Regarding `CCOP(=Nc1ccc(N(C)C)cc1)(OCC)OCC`, the GI50 in the experiment with MOLT-4, in the experiment with OVCAR-3, in the experiment with UO-31, in the experiment with K562, with U-251 and in the experiment with UACC-62 was > 100 µM (inactive) in each case. Moreover, the GI50 in the experiment on NCI-H23, in the experiment on OVCAR-5, in the experiment on IGROV-1, in the experiment on SNB-75, in the experiment on UACC-257 and in the experiment with SNB-19 was > 100 µM (inactive) each time. In addition, the GI50 in the experiment on RPMI-8226 was > 100 µM (inactive); in the experiment on HCT-15, more than 100 µM; in the experiment on OVCAR-8, > 100 µM (inactive); with HOP-62, > 100 µM (inactive); with SK-MEL-2, > 100 µM (inactive); in the experiment on SK-MEL-28, > 100 µM (inactive).
`CC(C)CC(NC(=O)OCc1ccccc1)C(=O)NCCCCC(N)C(=O)NC(CCCCNC(=O)C(CC(C)C)NC(=O)OCc1ccccc1)C(=O)NC(CCCCNC(=O)C(CC(C)C)NC(=O)OCc1ccccc1)C(=O)NC(CCCCNC(=O)C(CC(C)C)NC(=O)OCc1ccccc1)C(=O)NC(CCCCNC(=O)C(CC(C)C)NC(=O)OCc1ccccc1)C(=O)NC(CCCCNC(=O)C(CC(C)C)NC(=O)OCc1ccccc1)C(=O)O` (centres undefined): the GI50 in the experiment on MOLT-4 was > 100 µM (inactive); in the experiment on OVCAR-3, > 100 µM (inactive); in the experiment on UO-31, > 100 µM (inactive); with LOX IMVI it was 88.5 µM (inactive); in the experiment with K562 it was > 100 µM (inactive); in the experiment on U-251, > 100 µM (inactive). For the same molecule, the GI50 with UACC-62, in the experiment on NCI-H23, in the experiment with OVCAR-5, in the experiment with IGROV-1, with UACC-257 and in the experiment with SNB-19 was > 100 µM (inactive) each time. For the same molecule, the GI50 in the experiment with RPMI-8226 was > 100 µM (inactive); with HCT-15, more than 100 µM; in the experiment with OVCAR-8, > 100 µM (inactive); in the experiment with HOP-62, > 100 µM (inactive); in the experiment with CCRF-CEM it was > 100 µM (inactive); with SK-MEL-2, > 100 µM (inactive).
As to `COC(=O)C(=O)C(C(C)=O)C(=O)C(=O)Nc1ccc(C)cc1C` (centres undefined), the GI50 in the experiment on MOLT-4, with UO-31, with LOX IMVI, with K562, in the experiment on U-251 and with UACC-62 was > 100 µM (inactive) in each case. The GI50 in the experiment on NCI-H23, in the experiment on OVCAR-5, in the experiment with IGROV-1, in the experiment on SNB-75, with UACC-257 and in the experiment with SNB-19 was > 100 µM (inactive) throughout. In addition, the GI50 in the experiment on RPMI-8226 is > 100 µM (inactive); in the experiment on HCT-15 it was more than 100 µM; with OVCAR-8 it was > 100 µM (inactive); with HOP-62, > 100 µM (inactive); in the experiment with CCRF-CEM it was > 100 µM (inactive); with SK-MEL-2 it was > 100 µM (inactive). Further, the GI50 with SK-MEL-28 is > 100 µM (inactive).
